Experiments:
[1] = molecular target: Human immunodeficiency virus type 1 protease (Human immunodeficiency virus 1, UniProt Q72874); assay: Tested for inhibitory activity against HIV protease enzyme
[2] = molecular target: Human immunodeficiency virus type 1 protease (Human immunodeficiency virus 1) (UniProt Q72874)
Description: Tested for antiviral potency against HIV protease enzyme

With `CC(C)(C)NC(=O)[C@@H]1C[C@@H]2CCCC[C@@H]2CN1C[C@@H](O)[C@H](Cc1ccccc1)NC(=O)O[C@@H]1CO[C@@H]2OCC[C@@H]21` the IC50 [1] was 6.4 nM and the IC95 [2] was 200 nM.

Reference: ChEMBL document CHEMBL1127743, “Structure-based design of HIV-1 protease inhibitors: replacement of two amides and a 10 pi-aromatic system by a fused bis-tetrahydrofuran” (J Med Chem, 1994)
